Reference: US12281080B2, “Quinoline-based compounds and methods of inhibiting CDK8/19” (University of South Carolina, priority 2018, dated 2025)
Like-named read-outs stand apart in the source and are kept apart here.

How the values were obtained:
LYN = LYN (Homo sapiens (Human), UniProt P07948); assay: KINOMEscan scanMAX; format: binding; details: 2000 nM; read-out: Percent Control
[1] = molecular target: RSK2(Kin.Dom.1-N-terminal) (RPS6KA3) (Homo sapiens (Human), UniProt P51812); assay: KINOMEscan scanMAX; format: binding; details: 2000 nM; read-out: Percent Control
PAK7 = PAK7 (Homo sapiens (Human), UniProt Q9P286); assay: KINOMEscan scanMAX; format: binding; details: 2000 nM; read-out: Percent Control
MYO3A = MYO3A (Homo sapiens (Human), UniProt Q8NEV4); assay: KINOMEscan scanMAX; format: binding; details: 2000 nM; read-out: Percent Control
CDKL2 = CDKL2 (Homo sapiens (Human), UniProt Q92772); assay: KINOMEscan scanMAX; format: binding; details: 2000 nM; read-out: Percent Control
ERK3 (MAPK6) = ERK3 (MAPK6) (Homo sapiens (Human), UniProt Q16659); assay: KINOMEscan scanMAX; format: binding; details: 2000 nM; read-out: Percent Control
LRRK2(G2019S) = LRRK2(G2019S) (Homo sapiens (Human), UniProt Q5S007, G2019S); assay: KINOMEscan scanMAX; format: binding; details: 2000 nM; read-out: Percent Control
[2] = molecular target: PFCDPK1(P.falciparum) (CDPK1) (Plasmodium falciparum (isolate 3D7), UniProt P62344); assay: KINOMEscan scanMAX; format: binding; details: 2000 nM; read-out: Percent Control
TSSK1B = TSSK1B (Homo sapiens (Human), UniProt Q9BXA7); assay: KINOMEscan scanMAX; format: binding; details: 2000 nM; read-out: Percent Control
CSNK1G1 = CSNK1G1 (Homo sapiens (Human), UniProt Q9HCP0); assay: KINOMEscan scanMAX; format: binding; details: 2000 nM; read-out: Percent Control
MET(M1250T) = MET(M1250T) (Homo sapiens (Human), UniProt P08581, M1250T); assay: KINOMEscan scanMAX; format: binding; details: 2000 nM; read-out: Percent Control
[3] = molecular target: JAK2(JH1domain-catalytic) (Homo sapiens (Human), UniProt O60674); assay: KINOMEscan scanMAX; format: binding; details: 2000 nM; read-out: Percent Control
GAK = GAK (Homo sapiens (Human), UniProt O14976); assay: KINOMEscan scanMAX; format: binding; details: 2000 nM; read-out: Percent Control
[4] = system: CDK8/19-mediated NFκB-driven transcription; assay: NFκB-dependent luciferase reporter assay in parental 293 reporter cells; format: cell-based, human; details: Homo sapiens
KIT(D816H) = KIT(D816H) (Homo sapiens (Human), UniProt P10721, D816H); assay: KINOMEscan scanMAX; format: binding; details: 2000 nM; read-out: Percent Control
TTK = TTK (Homo sapiens (Human), UniProt P33981); assay: KINOMEscan scanMAX; format: binding; details: 2000 nM; read-out: Percent Control
CSNK1G2 = CSNK1G2 (Homo sapiens (Human), UniProt P78368); assay: KINOMEscan scanMAX; format: binding; details: 2000 nM; read-out: Percent Control
[5] = molecular target: RSK1(Kin.Dom.1-N-terminal) (RPS6KA1) (Homo sapiens (Human), UniProt Q15418); assay: KINOMEscan scanMAX; format: binding; details: 2000 nM; read-out: Percent Control
YSK4 (MAP3K19) = YSK4 (MAP3K19) (Homo sapiens (Human), UniProt Q56UN5); assay: KINOMEscan scanMAX; format: binding; details: 2000 nM; read-out: Percent Control
GRK1 = GRK1 (Homo sapiens (Human), UniProt Q15835); assay: KINOMEscan scanMAX; format: binding; details: 2000 nM; read-out: Percent Control
EPHA3 = EPHA3 (Homo sapiens (Human), UniProt P29320); assay: KINOMEscan scanMAX; format: binding; details: 2000 nM; read-out: Percent Control
CLK2 = CLK2 (Homo sapiens (Human), UniProt P49760); assay: KINOMEscan scanMAX; format: binding; details: 2000 nM; read-out: Percent Control
LATS1 = LATS1 (Homo sapiens (Human), UniProt O95835); assay: KINOMEscan scanMAX; format: binding; details: 2000 nM; read-out: Percent Control
CDK9 = CDK9 (Homo sapiens (Human), UniProt P50750); assay: KINOMEscan scanMAX; format: binding; details: 2000 nM; read-out: Percent Control
SgK110 = SgK110 (Homo sapiens (Human), UniProt P0C264); assay: KINOMEscan scanMAX; format: binding; details: 2000 nM; read-out: Percent Control
ALK(C1156Y) = ALK(C1156Y) (Homo sapiens (Human), UniProt Q9UM73, C1156Y); assay: KINOMEscan scanMAX; format: binding; details: 2000 nM; read-out: Percent Control
CDKL1 = CDKL1 (Homo sapiens (Human), UniProt Q00532); assay: KINOMEscan scanMAX; format: binding; details: 2000 nM; read-out: Percent Control
DLK (MAP3K12) = DLK (MAP3K12) (Homo sapiens (Human), UniProt Q12852); assay: KINOMEscan scanMAX; format: binding; details: 2000 nM; read-out: Percent Control
EPHA4 = EPHA4 (Homo sapiens (Human), UniProt P54764); assay: KINOMEscan scanMAX; format: binding; details: 2000 nM; read-out: Percent Control
MEK1 (MAP2K1) = MEK1 (MAP2K1) (Homo sapiens (Human), UniProt Q02750); assay: KINOMEscan scanMAX; format: binding; details: 2000 nM; read-out: Percent Control
EPHB6 = EPHB6 (Homo sapiens (Human), UniProt O15197); assay: KINOMEscan scanMAX; format: binding; details: 2000 nM; read-out: Percent Control
IRAK1 = IRAK1 (Homo sapiens (Human), UniProt P51617); assay: KINOMEscan scanMAX; format: binding; details: 2000 nM; read-out: Percent Control
SRPK1 = SRPK1 (Homo sapiens (Human), UniProt Q96SB4); assay: KINOMEscan scanMAX; format: binding; details: 2000 nM; read-out: Percent Control
ROCK1 = ROCK1 (Homo sapiens (Human), UniProt Q13464); assay: KINOMEscan scanMAX; format: binding; details: 2000 nM; read-out: Percent Control
ICK = ICK (Homo sapiens (Human), UniProt Q9UPZ9); assay: KINOMEscan scanMAX; format: binding; details: 2000 nM; read-out: Percent Control
[6] = molecular target: ABL1(M351T)-phosphorylated (Homo sapiens (Human), UniProt P00519, M351T); assay: KINOMEscan scanMAX; format: binding; details: 2000 nM; read-out: Percent Control
PIK4CB (PI4KB) = PIK4CB (PI4KB) (Homo sapiens (Human), UniProt Q9UBF8); assay: KINOMEscan scanMAX; format: binding; details: 2000 nM; read-out: Percent Control
STK33 = STK33 (Homo sapiens (Human), UniProt Q9BYT3); assay: KINOMEscan scanMAX; format: binding; details: 2000 nM; read-out: Percent Control
ERK5 (MAPK7) = ERK5 (MAPK7) (Homo sapiens (Human), UniProt Q13164); assay: KINOMEscan scanMAX; format: binding; details: 2000 nM; read-out: Percent Control

MET(M1250T), sequence (P08581 25-1390 M1250T): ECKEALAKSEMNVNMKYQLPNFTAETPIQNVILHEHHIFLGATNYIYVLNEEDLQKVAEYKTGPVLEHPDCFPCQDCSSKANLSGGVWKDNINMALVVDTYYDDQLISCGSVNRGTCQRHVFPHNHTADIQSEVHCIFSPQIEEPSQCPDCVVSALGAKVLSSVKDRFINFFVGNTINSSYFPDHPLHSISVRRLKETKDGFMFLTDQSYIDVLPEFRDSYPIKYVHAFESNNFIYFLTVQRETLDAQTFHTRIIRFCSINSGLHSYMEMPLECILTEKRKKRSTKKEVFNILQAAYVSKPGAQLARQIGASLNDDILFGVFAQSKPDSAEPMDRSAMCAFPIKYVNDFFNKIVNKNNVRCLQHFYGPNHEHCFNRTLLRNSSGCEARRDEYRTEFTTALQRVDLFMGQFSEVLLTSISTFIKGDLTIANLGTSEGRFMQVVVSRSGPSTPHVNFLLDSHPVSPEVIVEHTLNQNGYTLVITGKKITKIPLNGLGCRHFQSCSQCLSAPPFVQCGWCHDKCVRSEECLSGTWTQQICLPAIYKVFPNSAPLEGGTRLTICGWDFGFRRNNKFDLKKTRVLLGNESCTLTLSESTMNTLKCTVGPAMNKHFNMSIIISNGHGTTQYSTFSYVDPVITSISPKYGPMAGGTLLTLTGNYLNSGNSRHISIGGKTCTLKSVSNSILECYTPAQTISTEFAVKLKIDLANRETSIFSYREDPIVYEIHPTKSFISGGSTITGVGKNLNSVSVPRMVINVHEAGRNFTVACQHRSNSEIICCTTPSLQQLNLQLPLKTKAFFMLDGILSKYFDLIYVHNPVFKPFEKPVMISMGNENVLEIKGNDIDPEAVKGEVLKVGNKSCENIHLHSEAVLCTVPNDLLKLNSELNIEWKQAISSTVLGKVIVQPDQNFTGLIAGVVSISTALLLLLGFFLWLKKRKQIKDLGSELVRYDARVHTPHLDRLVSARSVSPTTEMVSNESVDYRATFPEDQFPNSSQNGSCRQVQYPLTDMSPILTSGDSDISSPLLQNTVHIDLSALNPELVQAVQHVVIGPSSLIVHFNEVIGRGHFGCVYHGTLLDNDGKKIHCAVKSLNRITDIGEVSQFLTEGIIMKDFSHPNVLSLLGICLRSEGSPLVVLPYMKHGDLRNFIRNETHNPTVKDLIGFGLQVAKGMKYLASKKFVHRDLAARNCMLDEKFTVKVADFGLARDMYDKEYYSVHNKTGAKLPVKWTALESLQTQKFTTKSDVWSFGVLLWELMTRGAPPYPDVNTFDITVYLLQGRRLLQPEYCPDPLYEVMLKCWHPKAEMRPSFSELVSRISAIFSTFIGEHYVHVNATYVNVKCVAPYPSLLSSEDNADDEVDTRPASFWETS
ROCK1, sequence (Q13464 whole entry): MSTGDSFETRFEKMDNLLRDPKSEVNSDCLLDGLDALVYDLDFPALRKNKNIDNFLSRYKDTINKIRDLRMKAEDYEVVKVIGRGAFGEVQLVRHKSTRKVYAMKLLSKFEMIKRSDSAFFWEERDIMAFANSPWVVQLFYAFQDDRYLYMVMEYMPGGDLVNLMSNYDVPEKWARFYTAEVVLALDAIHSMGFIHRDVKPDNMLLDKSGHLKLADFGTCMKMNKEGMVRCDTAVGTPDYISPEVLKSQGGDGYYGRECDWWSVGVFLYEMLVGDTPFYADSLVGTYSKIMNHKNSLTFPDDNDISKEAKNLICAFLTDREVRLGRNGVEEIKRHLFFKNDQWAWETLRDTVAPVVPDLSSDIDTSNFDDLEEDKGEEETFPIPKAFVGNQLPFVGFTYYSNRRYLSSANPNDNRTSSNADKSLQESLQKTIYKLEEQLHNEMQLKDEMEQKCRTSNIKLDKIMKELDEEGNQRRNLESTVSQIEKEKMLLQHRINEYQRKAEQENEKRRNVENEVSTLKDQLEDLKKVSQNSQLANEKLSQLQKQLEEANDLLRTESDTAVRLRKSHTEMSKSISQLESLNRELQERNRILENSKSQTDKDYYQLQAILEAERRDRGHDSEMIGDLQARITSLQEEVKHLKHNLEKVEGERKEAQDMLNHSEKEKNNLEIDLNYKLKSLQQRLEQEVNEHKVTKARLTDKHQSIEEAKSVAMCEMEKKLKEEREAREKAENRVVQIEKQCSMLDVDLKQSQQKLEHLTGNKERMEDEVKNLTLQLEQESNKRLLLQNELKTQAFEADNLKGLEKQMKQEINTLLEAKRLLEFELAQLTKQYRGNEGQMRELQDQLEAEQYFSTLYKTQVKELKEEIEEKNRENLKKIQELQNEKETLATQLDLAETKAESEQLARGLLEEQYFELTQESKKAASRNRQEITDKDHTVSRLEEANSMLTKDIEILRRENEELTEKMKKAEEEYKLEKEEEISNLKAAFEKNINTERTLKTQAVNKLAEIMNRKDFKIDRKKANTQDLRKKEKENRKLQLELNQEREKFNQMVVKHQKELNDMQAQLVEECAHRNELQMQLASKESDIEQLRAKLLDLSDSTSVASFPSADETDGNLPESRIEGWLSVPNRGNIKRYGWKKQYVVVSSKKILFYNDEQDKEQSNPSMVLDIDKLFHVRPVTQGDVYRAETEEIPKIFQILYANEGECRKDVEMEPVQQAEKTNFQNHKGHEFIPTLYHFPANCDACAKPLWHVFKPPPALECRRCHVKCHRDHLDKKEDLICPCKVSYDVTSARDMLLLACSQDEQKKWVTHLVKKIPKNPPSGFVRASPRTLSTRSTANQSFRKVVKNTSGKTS
TSSK1B, sequence (Q9BXA7 whole entry): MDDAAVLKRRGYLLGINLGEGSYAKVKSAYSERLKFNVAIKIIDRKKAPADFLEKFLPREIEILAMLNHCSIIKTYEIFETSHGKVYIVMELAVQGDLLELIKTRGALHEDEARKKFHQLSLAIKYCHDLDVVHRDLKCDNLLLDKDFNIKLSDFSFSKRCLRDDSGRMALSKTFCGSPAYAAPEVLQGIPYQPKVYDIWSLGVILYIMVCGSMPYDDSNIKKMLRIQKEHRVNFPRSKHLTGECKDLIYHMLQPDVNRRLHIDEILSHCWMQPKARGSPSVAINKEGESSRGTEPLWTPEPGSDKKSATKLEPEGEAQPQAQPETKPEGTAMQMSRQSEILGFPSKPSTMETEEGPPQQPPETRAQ
GRK1, sequence (Q15835 whole entry): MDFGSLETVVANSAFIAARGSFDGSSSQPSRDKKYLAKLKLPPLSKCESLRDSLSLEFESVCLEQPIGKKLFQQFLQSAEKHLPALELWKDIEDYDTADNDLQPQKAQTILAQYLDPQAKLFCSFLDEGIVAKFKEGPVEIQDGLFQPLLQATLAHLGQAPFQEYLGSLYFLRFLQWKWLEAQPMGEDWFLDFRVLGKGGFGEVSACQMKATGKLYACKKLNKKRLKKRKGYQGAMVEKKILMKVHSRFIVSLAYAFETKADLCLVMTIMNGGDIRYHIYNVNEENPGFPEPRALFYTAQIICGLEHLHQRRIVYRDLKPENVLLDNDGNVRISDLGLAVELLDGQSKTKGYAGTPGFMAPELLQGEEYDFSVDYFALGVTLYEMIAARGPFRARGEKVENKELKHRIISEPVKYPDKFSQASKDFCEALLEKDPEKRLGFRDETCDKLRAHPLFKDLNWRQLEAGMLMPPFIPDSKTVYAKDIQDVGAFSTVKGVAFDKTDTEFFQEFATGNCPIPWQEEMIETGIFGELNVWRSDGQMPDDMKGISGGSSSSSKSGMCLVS
RSK1(Kin.Dom.1-N-terminal) (RPS6KA1), sequence (Q15418 62-321): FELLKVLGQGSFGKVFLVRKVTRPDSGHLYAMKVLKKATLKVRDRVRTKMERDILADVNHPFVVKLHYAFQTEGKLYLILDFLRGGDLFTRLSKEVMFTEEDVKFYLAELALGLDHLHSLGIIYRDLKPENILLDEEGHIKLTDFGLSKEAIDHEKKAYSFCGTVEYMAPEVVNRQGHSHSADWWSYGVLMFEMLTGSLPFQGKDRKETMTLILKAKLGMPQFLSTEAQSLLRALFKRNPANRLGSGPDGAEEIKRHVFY
STK33, sequence (Q9BYT3 whole entry): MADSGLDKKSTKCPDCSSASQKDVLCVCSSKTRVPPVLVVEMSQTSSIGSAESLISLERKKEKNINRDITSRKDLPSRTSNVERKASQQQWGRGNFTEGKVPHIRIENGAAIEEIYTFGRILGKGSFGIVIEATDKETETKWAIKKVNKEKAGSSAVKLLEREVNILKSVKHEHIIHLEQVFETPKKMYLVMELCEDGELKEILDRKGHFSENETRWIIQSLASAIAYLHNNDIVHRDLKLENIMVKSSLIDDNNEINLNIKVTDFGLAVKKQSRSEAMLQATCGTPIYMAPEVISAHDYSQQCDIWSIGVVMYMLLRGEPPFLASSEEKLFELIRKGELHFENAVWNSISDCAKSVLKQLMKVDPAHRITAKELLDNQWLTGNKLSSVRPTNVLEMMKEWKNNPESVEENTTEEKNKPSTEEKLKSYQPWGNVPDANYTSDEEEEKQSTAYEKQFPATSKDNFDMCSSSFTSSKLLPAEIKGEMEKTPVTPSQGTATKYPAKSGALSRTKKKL
CDKL2, sequence (Q92772 whole entry): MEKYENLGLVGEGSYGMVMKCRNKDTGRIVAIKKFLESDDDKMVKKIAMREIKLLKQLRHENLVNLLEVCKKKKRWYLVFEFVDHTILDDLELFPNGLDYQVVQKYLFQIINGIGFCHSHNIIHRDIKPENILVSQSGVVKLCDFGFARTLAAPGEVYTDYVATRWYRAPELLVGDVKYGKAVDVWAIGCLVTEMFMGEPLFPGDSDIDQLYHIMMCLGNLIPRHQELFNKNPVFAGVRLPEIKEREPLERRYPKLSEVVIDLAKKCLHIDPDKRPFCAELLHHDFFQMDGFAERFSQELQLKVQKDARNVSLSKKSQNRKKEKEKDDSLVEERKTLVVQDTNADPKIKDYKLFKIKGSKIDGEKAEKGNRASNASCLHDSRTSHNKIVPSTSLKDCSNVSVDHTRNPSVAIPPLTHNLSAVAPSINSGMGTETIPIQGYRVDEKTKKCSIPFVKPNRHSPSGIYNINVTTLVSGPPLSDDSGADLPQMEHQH

CN1CCN(C(=O)c2ccc3cc(CCNc4ccnc5ccc(C#N)cc45)ccc3c2)CC1 [compound 6148, 4-((2-(6-(4-methylpiperazine-1-carbonyl)naphthalen-2-yl)ethyl)amino)quinoline-6-carbonitrile]
remaining binding at 2 µM (LYN): 88% | remaining binding at 2 µM [1]: 62% | remaining binding at 2 µM (PAK7): 100% | remaining binding at 2 µM (MYO3A): 100% | remaining binding at 2 µM (CDKL2): 75% | remaining binding at 2 µM (ERK3 (MAPK6)): 89% | remaining binding at 2 µM (LRRK2(G2019S)): 56% | remaining binding at 2 µM [2]: 83% | remaining binding at 2 µM (TSSK1B): 100% | remaining binding at 2 µM (CSNK1G1): 100% | remaining binding at 2 µM (MET(M1250T)): 88% | remaining binding at 2 µM [3]: 56% | remaining binding at 2 µM (GAK): 100% | IC50 ([4]; 293/NFkB-luc, read-out: IC50 (293-NFKB-Luc)): 0.055 µM | IC50 ([4]; HEK293, parental 293-derived reporter cell line, read-out: HEK293 NFKB CDK8 Reporter IC50): 0.065 µM | remaining binding at 2 µM (KIT(D816H)): 57% | remaining binding at 2 µM (TTK): 72% | remaining binding at 2 µM (CSNK1G2): 89% | remaining binding at 2 µM [5]: 91% | remaining binding at 2 µM (YSK4 (MAP3K19)): 50% | remaining binding at 2 µM (GRK1): 63% | remaining binding at 2 µM (EPHA3): 100% | remaining binding at 2 µM (CLK2): 93% | remaining binding at 2 µM (LATS1): 76% | remaining binding at 2 µM (CDK9): 97% | remaining binding at 2 µM (SgK110): 91% | remaining binding at 2 µM (ALK(C1156Y)): 83% | remaining binding at 2 µM (CDKL1): 94% | remaining binding at 2 µM (DLK (MAP3K12)): 68% | remaining binding at 2 µM (EPHA4): 93% | remaining binding at 2 µM (MEK1 (MAP2K1)): 59% | remaining binding at 2 µM (EPHB6): 86% | remaining binding at 2 µM (IRAK1): 45% | remaining binding at 2 µM (SRPK1): 91% | remaining binding at 2 µM (ROCK1): 52% | remaining binding at 2 µM (ICK): 54% | remaining binding at 2 µM [6]: 80% | remaining binding at 2 µM (PIK4CB (PI4KB)): 51% | remaining binding at 2 µM (STK33): 93% | remaining binding at 2 µM (ERK5 (MAPK7)): 94%
